According to ChEMBL document CHEMBL3751819, “Navigating into the chemical space between MGCD0103 and SAHA: novel histone deacetylase inhibitors as a promising lead” (Medchemcomm, 2015):

Tests used:
[1] = test system: HeLa; experiment: Induction of apoptosis in human HeLa cells assessed as late apoptotic cells at 5 uM after 48 hrs by annexin-V-FITC/propidium iodide staining based flow cytometry (reference value: 9.3%); assay type: functional
[2] = test system: HeLa; experiment: Induction of apoptosis in human HeLa cells assessed as necrotic cells at 2.5 uM after 48 hrs by annexin-V-FITC/propidium iodide staining based flow cytometry (reference value: 0.693%); assay type: functional
[3] = test system: HeLa; experiment: Induction of cell cycle arrest in human HeLa cells assessed as accumulation at G0/G1 phase at 2 uM after 24 hrs by propidium iodide staining based flow cytometry (reference value: 0.5 to 0.52%); assay type: functional
[4] = test system: HeLa; experiment: Induction of apoptosis in human HeLa cells assessed as viable cells at 2.5 uM after 48 hrs by annexin-V-FITC/propidium iodide staining based flow cytometry (reference value: 88.6%); assay type: functional; conditions: Homo sapiens, HeLa, 48 h; read-out: Activity
[5] = test system: HeLa; experiment: Induction of apoptosis in human HeLa cells assessed as early apoptotic cells at 2.5 uM after 48 hrs by annexin-V-FITC/propidium iodide staining based flow cytometry (reference value: 1.4%); assay type: functional
[6] = test system: HeLa; experiment: Induction of cell cycle arrest in human HeLa cells assessed as accumulation at S phase at 0.5 uM after 24 hrs by propidium iodide staining based flow cytometry (reference value: 0.12 to 0.13%); assay type: functional
[7] = Half life in mouse microsomes; assay type: ADME, Microsome
[8] = test system: MCF7; experiment: Antiproliferative activity against human MCF7 cells assessed as reduction in cell viability after 24 hrs by MTT assay; assay type: functional, cell-based; conditions: MCF7, 24 h
[9] = Half life in mouse plasma; assay type: ADME, cell-free
[10] = Antiproliferative activity against human HCT116 cells assessed as reduction in cell viability after 24 hrs by MTT assay; assay type: functional, cell-based; conditions: HCT-116, 24 h
[11] = Antiproliferative activity against human HCT116 cells assessed as reduction in cell viability after 48 hrs by MTT assay; assay type: functional, cell-based; conditions: HCT-116, 48 h
[12] = test system: HeLa; experiment: Induction of apoptosis in human HeLa cells assessed as early apoptotic cells at 5 uM after 48 hrs by annexin-V-FITC/propidium iodide staining based flow cytometry (reference value: 1.4%); assay type: functional
[13] = test system: HeLa; experiment: Antiproliferative activity against human HeLa cells assessed as reduction in cell viability after 72 hrs by MTT assay; assay type: functional, cell-based
[14] = test system: MCF7; experiment: Antiproliferative activity against human MCF7 cells assessed as reduction in cell viability after 72 hrs by MTT assay; assay type: functional, cell-based; conditions: MCF7, 72 h
[15] = test system: HepG2; experiment: Antiproliferative activity against human HepG2 cells assessed as reduction in cell viability after 48 hrs by MTT assay; assay type: functional, cell-based; conditions: HepG2, 48 h
[16] = target: Histone deacetylase 1 (Homo sapiens, UniProt Q13547); experiment: Inhibition of HDAC1 (unknown origin) using Boc-Lys(acetyl)-AMC as substrate preincubated for 5 mins followed by substrate addition by fluorescence assay
[17] = test system: A549; experiment: Antiproliferative activity against human A549 cells assessed as reduction in cell viability after 72 hrs by MTT assay; assay type: functional, cell-based; conditions: for IC50: A549, 72 h
[18] = test system: HeLa; experiment: Induction of apoptosis in human HeLa cells assessed as early apoptotic cells at 1.25 uM after 48 hrs by annexin-V-FITC/propidium iodide staining based flow cytometry (reference value: 1.4%); assay type: functional
[19] = test system: HeLa; experiment: Induction of cell cycle arrest in human HeLa cells assessed as accumulation at G2/M phase at 2 uM after 24 hrs by propidium iodide staining based flow cytometry (reference value: 0.35 to 0.37%); assay type: functional
[20] = test system: HeLa; experiment: Induction of apoptosis in human HeLa cells assessed as late apoptotic cells at 2.5 uM after 48 hrs by annexin-V-FITC/propidium iodide staining based flow cytometry (reference value: 9.3%); assay type: functional
[21] = test system: HeLa; experiment: Induction of apoptosis in human HeLa cells assessed as viable cells at 1.25 uM after 48 hrs by annexin-V-FITC/propidium iodide staining based flow cytometry (reference value: 88.6%); assay type: functional; conditions: Homo sapiens, HeLa, 48 h; read-out: Activity
[22] = Half life in artificial intestinal fluid; assay type: ADME
[23] = target: Histone deacetylase 2 (Homo sapiens, UniProt Q92769); experiment: Inhibition of HDAC2 (unknown origin) using Boc-Lys(acetyl)-AMC as substrate preincubated for 5 mins followed by substrate addition by fluorescence assay
[24] = test system: HeLa; experiment: Induction of cell cycle arrest in human HeLa cells assessed as accumulation at G0/G1 phase at 0.5 uM after 24 hrs by propidium iodide staining based flow cytometry (reference value: 0.5 to 0.52%); assay type: functional
[25] = test system: HepG2; experiment: Antiproliferative activity against human HepG2 cells assessed as reduction in cell viability after 72 hrs by MTT assay; assay type: functional, cell-based; conditions: HepG2, 72 h
[26] = Half life in artificial gastric fluid; assay type: ADME
[27] = test system: HeLa; experiment: Induction of apoptosis in human HeLa cells assessed as viable cells at 5 uM after 48 hrs by annexin-V-FITC/propidium iodide staining based flow cytometry (reference value: 88.6%); assay type: functional; conditions: Homo sapiens, HeLa, 48 h; read-out: Activity
[28] = test system: HeLa; experiment: Antiproliferative activity against human HeLa cells assessed as reduction in cell viability after 24 hrs by MTT assay; assay type: functional, cell-based
[29] = Antiproliferative activity against human HCT116 cells assessed as reduction in cell viability after 72 hrs by MTT assay; assay type: functional, cell-based; conditions: HCT-116, 72 h

Histone deacetylase 2, sequence (Q92769 whole entry): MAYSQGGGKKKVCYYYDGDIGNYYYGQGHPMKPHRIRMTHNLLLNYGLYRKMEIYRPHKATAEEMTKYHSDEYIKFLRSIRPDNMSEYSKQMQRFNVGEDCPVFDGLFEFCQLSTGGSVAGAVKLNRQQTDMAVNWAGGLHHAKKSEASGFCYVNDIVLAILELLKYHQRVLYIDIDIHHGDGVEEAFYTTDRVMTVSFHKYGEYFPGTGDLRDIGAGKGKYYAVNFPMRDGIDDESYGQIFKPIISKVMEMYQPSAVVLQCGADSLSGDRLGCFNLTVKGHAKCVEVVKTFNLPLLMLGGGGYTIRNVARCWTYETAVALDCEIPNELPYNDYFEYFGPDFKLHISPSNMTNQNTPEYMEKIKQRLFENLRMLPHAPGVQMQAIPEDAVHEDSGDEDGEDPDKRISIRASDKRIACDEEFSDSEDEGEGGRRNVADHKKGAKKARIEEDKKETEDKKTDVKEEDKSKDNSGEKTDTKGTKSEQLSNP
Histone deacetylase 1, sequence (Q13547 whole entry): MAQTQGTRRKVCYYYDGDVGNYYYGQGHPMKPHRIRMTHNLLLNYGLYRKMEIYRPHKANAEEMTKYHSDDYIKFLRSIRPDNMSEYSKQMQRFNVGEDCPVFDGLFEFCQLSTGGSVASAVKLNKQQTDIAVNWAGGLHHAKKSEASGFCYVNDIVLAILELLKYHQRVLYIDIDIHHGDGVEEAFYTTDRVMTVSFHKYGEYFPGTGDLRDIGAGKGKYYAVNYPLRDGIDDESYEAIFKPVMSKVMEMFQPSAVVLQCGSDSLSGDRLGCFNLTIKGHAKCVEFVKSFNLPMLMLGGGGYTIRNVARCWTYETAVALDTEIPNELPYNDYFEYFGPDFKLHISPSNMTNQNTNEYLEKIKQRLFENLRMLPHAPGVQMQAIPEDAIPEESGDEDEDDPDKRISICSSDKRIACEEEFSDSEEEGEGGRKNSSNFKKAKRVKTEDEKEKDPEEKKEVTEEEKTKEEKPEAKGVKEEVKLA

Row | half-life [7] [h] | IC50 [8] [µM] | half-life [9] [h] | IC50 [13] [µM] | IC50 [14] [µM] | IC50 [15] [µM] | IC50 [16] [µM] | IC50 [17] [µM] | SMILES | Activity [1] [%] | Activity [2] [%] | Activity [3] [%] | viability at 2.5 µM [4] [%] | Activity [5] [%] | Activity [6] [%] | IC50 [10] [µM] | IC50 [11] [µM] | Activity [12] [%] | Activity [17] | Activity [18] [%] | Activity [19] [%] | other results
1 | 2.87 | 46 | 12 | 3.17 | 2.41 | 4.03 | 0.065 | 4.64 | O=C(NO)c1ccc(CNc2nccc(-c3cccnc3)n2)cc1 | 11.7 | 0.72 | 0.93 | 81.1 | 6.33 | 0.13 | 13.7 | < 0.88 | 11.1 | Dose-dependent effect | 4.89 | 0.04 | Activity [20]: 11.9%; viability at 1.25 µM [21]: 79.3%; half-life [22]: > 24 h; IC50 [23]: 0.134 µM; Activity [24]: 0.56%; IC50 [25]: 2.96 µM; half-life [26]: > 24 h; viability at 5 µM [27]: 76.7%; IC50 [28]: 30.7 µM; IC50 [29]: 1.66 µM
2 | 2.5 | 46 | 10 | 3.24 | 2.66 | 5.95 | 0.082 | 7.99 | O=C(/C=C/c1ccc(CNc2nccc(-c3cccnc3)n2)cc1)NO | 12.4 | 0.603 | 0.87 | 79.6 | 6.59 | 0.13 | 8.28 | < 0.81 | 10.2 | Dose-dependent effect | 4.27 | 0.09 | Activity [20]: 13.2%; viability at 1.25 µM [21]: 82.6%; half-life [22]: > 24 h; IC50 [23]: 0.187 µM; Activity [24]: 0.58%; IC50 [25]: 6.52 µM; half-life [26]: > 24 h; viability at 5 µM [27]: 76.5%; IC50 [28]: 53.4 µM; IC50 [29]: 1.05 µM
